# Laboratory results from paper doi:10.1101/2021.03.09.434688v1 (biorxiv, 2021).
# Molecular target: T1, PsnB (Plesiocystis pacifica, UniProt A6G4D7)
# T1 sequence (A6G4D7 1-314): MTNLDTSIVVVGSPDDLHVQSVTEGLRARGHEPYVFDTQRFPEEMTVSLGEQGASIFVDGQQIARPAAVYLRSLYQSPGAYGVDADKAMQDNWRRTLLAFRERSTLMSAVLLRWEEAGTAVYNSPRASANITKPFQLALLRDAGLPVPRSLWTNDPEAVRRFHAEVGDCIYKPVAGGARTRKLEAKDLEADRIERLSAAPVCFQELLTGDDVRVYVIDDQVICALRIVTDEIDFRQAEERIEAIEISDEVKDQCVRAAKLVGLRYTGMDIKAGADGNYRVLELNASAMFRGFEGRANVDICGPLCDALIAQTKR
# T1 sequence (A6GH40 14-38 partner): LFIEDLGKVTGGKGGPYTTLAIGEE
# Assay: X-ray crystal structure of the complex
# Format: binding
# Details: complex with minimal precursor PsnA2_14-38 and Mg; nucleotide 5 mM; ATP site
row,X-ray crystal structure of the complex,Compound
1,For PsnB-MP-ADP (7DRM),Nc1ncnc2c1ncn2[C@@H]1O[C@H](COP(=O)(O)OP(=O)(O)O)[C@@H](O)[C@H]1O [ADP]
2,PsnB-MP-AMPPNP (7DRN),Nc1ncnc2c1ncn2[C@@H]1O[C@H](COP(=O)(O)OP(=O)(O)NP(=O)(O)O)[C@@H](O)[C@H]1O [AMPPNP]
